# Results: PMC4421842 (Nature Communications, 2015)
# Entries after “also recorded” stand apart in the source; their conditions may differ.
# Key:
# [1] = tested on: FQR S. aureus (NRS3, FQR); assay: MIC, microdilution broth assay, FQR MRSA NRS3; type: cell-based; conditions: NRS3, S84L GyrA and S80F ParC, three independent replicates
# S83L E. coli DNA gyrase = target: T1, S83L E. coli DNA gyrase (Escherichia coli, UniProt P0AES4+P0AES6, S83L); type: biochemical; conditions: DNA cleavage assay
# T1 construct: His tag (pTRCHisA vector; purified on Ni-NTA); made in house; host or cells: E. coli One Shot BL21 Star (DE3)
# human erythrocytes = assay: In-vitro haemolysis assay; type: cell-based; conditions: human red blood cells, 2 h at 37°C, 160 µg mL-1 or highest concentration solubility allowed
# Experimental: Haemolysis assays were performed as previously described. Briefly, assays were performed using human erythrocytes within 3 days of receipt. One millilitre of human blood purchased from Bioreclamation, Inc. (Hicksville, NY) was centrifuged (10,000 × g, 2 min). The pellet was washed three times with sterile saline (0.9% NaCl in water) by repeated gentle suspension and centrifugation. The pellet was resuspended in RBC buffer (10 mM Na2HPO4, 150 mM NaCl, 1 mM MgCl2 pH 7.4). To evaluate haemolytic activity of DNM and derivatives, 1 μl either 3.2 mg ml^−1 DMSO stock (or the most concentrated stock of the compound available if not soluble at 3.2 mg ml^−1 in DMSO) was transferred to 0.5 ml Eppendorf tubes containing 19 μl RBC buffer. Negative control tubes contained 1 μl DMSO and 19 μl RBC buffer, and positive control tubes contained 1 μl DMSO and 19 μl sterile deionized water. A suspension of washed erythrocytes (10 μl) was added to each tubes and samples were incubated at 37 °C for 2 h. Samples were centrifuged at 10,000 × g for 2 min and the supernatants from each sample (25 μl) were transferred to a clear, sterile 384-well plate. The absorbance of these supernatants was measured at 540 nm using a SpectraMaxPlus384 absorbance plate reader (Molecular Devices). Per cent haemolysis of each sample was calculated relative to the average absorbance values measured for positive controls.
# [2] = tested on: normal (that is, non-cancerous) cell lines; parameters: method as in PMID 10993200; conditions: previously published data; cited from earlier work
# human topoisomerase II = target: T2, human topoisomerase II (Homo sapiens, UniProt P11388); assay: Human topoisomerase decatenation assay; type: biochemical; conditions: decatenation assay
# T2 construct: purchased Inspiralis
# Experimental: The decatenation assay was performed with the Human Topo II Decatenation Assay Kit (Inspiralis), according to the manufacturer's instructions, with minor modifications. First, a master mix was made containing 2 μl of 10 × assay buffer (500 mM Tris-HCl pH 7.5, 1250, mM NaCl, 100 mM MgCl2, 50 mM DTT, 1,000 μg ml^−1 albumin), 0.67 μl of 30 mM ATP, 1.34 μl of 0.1 ng μl^−1 kDNA, and 14.3 μl of nuclease-free water per sample is made. DMSO or 30 × compound is added to a 0.5-ml Eppendorf tube (0.67 μl per tube). The master mix is then added to each tube (18.3 μl per tube). Finally, 1 U of human topoisomerase (1 μl of 1 U μl^−1 stock) is added to each tube for a final volume of 20 μl. The tubes are then incubated at 37 °C for 30 min. Reactions are stopped by the addition of 20 μl of 24:1 chloroform:isoamyl alcohol and 20 μl of stop dye (40% sucrose, 1 mM EDTA, 100 mM Tris-HCl pH 7.5, 0.5 μg ml^−1 bromophenol blue). Samples were run on 1% agarose gels containing 0.5 μg ml^−1 ethidium bromide for 1 h at 110 V or until the dye front was approximately halfway down the gel. Gels were imaged on a Molecular Imager Gel Doc XR+ (Biorad).
# Herring Sperm DNA = assay: Intercalation assay (ethidium bromide displacement); type: binding
# Experimental: Intercalation assays were performed as previously described. The ability of DNM-2 to intercalate into DNA was measured by an ethidium bromide displacement assay. Herring Sperm DNA (34 μg ml^−1 final) was premixed with buffer containing ethidium bromide (50 mM Tris base, 100 mM NaCl, 1 mM EDTA, 5 μM EtBr pH 7.5). Ninety-five microlitres of this solution was added to a 96-well plate containing 5 μl of DMSO solutions of compounds. […] Doxorubicin was used as a positive control. The reactions were allowed to incubate for 30 min. Fluorescence was then read on a Gemini microplate reader (Molecular Devices, excitation=545 nm, emission=595 nm).
# [3] = In-vivo toxicity assessment, once daily for 10 days; parameters: species or system BALB/c mice; conditions: mice
# Experimental: Toxicity was assessed as previously described. Specifically, heparinized whole blood was collected for assessment of total white blood cells, neutrophils, lymphocytes, haematocrit, platelets, creatinine, blood urea, nitrogen, albumin, alanine aminotransferase, alkaline phosphatase and total bilirubin. Mice were euthanized by overdosing with ketamine/xylazine and the heart, lung, kidney, liver, spleen, gastrointestinal tract and the brain were collected for histopathology. Tissue samples were fixed 24 h in 10% neutral buffered formalin, processed and paraffin embedded, sectioned (5 μm thickness) and stained with haematoxylin and eosin. All slides were systematically evaluated by a single board-certified veterinary anatomic pathologist (SL) for evidence of acute or chronic inflammation and toxicity. All lesions were characterized, recorded and scored for severity (minimal=1, mild=2, moderate=3, marked=4, and severe=5).
# FQR MRSA (NRS3) = assay: In-vivo efficacy, mouse sepsis model; conditions: 50 mg kg^−1 oral gavage once daily for 10 days; n=15; Kaplan–Meier, log rank survival test
# [4] = 50 mg kg-1 oral gavage once daily for 10 days
# [5] = 50 mg kg^−1 oral gavage once daily for 10 days
compound,measurement,setting,value
"Cc1cc(=O)n(C)c2c3c4c(cc12)c(C)cc(=O)n4CO3 [DNM, deoxynybomycin]",MIC against S. aureus NRS3,[1],0.03 µg/mL
same,MIC,"[1]; Staphylococcus aureus, read-out: MIC against S. aureus NRS3",0.03 µg/mL
same,concentration giving significant buildup of OC DNA (P<0.05),S83L E. coli DNA gyrase,0.17 µM
same,haemolysis,human erythrocytes,none of these compounds induce haemolysis
same,toxicity to normal (non-cancerous) cell lines,[2],non-toxic
CCn1c(=O)cc(C)c2cc3c(C)cc(=O)n4c3c(c21)OC4 [DNM-2],concentration inhibiting human topoisomerase II,human topoisomerase II,> 30 µM
same,concentration with significant DNA intercalation,Herring Sperm DNA,> 30 µM
same,ALP,[3]; [4],60 ± 10 U/L
same,ALT,[3]; [4],36 ± 1 U/L
same,Albumin,[3]; [4],3.2 ± 0.1 g/dL
same,BUN (Urea),[3]; [4],32.0 ± 0.4 mg/dL
same,Creatine,[3]; [4],0.2 ± 0.0 mg/dL
same,Globulin,[3]; [4],2.62 ± 0.05 g/dL
same,Hematocrit,[3]; [4],40 ± 1%
same,Hemoglobin,[3]; [4],14.2 ± 0.3 g/dL
same,Lymphocyte,[3]; [4],81 ± 3 % of WBC
same,Mean Cell Volume,[3]; [4],47.3 ± 0.4 fL
same,Neutrophil,[3]; [4],18 ± 3 % of WBC
same,RBC,[3]; [4],8.5 ± 0.2 X106/µL
same,WBC,[3]; [4],3800 ± 300 cells/µL
same,Platelet,"[3]; 50 mg kg-1 oral gavage once daily for 10 days, counts low because of platelet clumps","60,000 ± 10,000 cells/µL"
same,Total Bilirubin,"[3]; 50 mg kg-1 oral gavage once daily for 10 days, increased also in vehicle due to hemolysis during blood collection",0.7 ± 0.1 mg/dL
same,adipocytes and triglyceride levels,[3]; [5],Increased vacuolation of white and brown adipocytes with a minimal increase in triglyceride levels
same,haematological and non-haematological toxicity markers,[3]; [5],"No clinically significant evidence for myelosuppression, renal injury or hepatic toxicity was identified"
same,"histopathology of kidney, brain, lung, liver, spleen, heart and stomach",[3]; [5],did not reveal any evidence of toxicity
same,histopathology of small intestine sections,[3]; [5],mild intestinal dilation associated with villi atrophy
same,"survival of mice infected with MRSA (NRS3, FQR)",FQR MRSA (NRS3),***P<0.005 versus vehicle and CIP; also recorded: significant survival difference relative to both CIP and vehicle-treated control; also recorded: effective in treating mice infected with MRSA
